{
  "source": "paper PMC10762068",
  "about": "“Selective blockade of Cav1.2 (α1C) versus Cav1.3 (α1D) L-type calcium channels by the black mamba toxin calciseptine” (Nature Communications, 2024)",
  "key": {"[1]": {"test_system": "ICav1.2 in SAN myocytes from Cav1.3^−/− mice", "assay": "ICaL, patch clamp, SAN myocytes from Cav1.3-/- mice", "format": "cell-based, mouse", "settings": "for degree of inhibition of ICav1.2 / percentage of ICaL block: step 0 mV, mean ± SEM; for degree of inhibition of ICav1.2: n=6/N=2; for percentage of ICaL block: n=7/N=2; for L-type Ca2+ current density: Cas 1 µM alone or + Nife 3 µM, n=8", "experimental": "Hearts from Wild-Type and Cav1.3^−/− mice were removed under general anesthesia consisting of 0.01 mg/g xylazine (2% Rompun; Bayer AG) and 0.1 mg/g ketamine (Imalgène;Merial) and immersed in a pre-warmed (36 °C) Tyrode solution containing (mM): 140 NaCl, 5.4 KCl, 1 MgCl2, 1.8 CaCl2, 5.5 D-glucose, and 5 Hepes (adjusted to pH 7.4 with NaOH). […] SAN tissue was excised and transferred into a low-Ca^2+ solution containing (mM): 140 NaCl, 5.4 KCl, 0.5 MgCl2, 0.2 CaCl2, 1.2 KH2PO4, 50 taurine, 5.5 D-glucose, 1 mg/mL BSA, and 5 Hepes–NaOH (adjusted to pH 6.9 with NaOH) for 5 min. Then, enzymatic digestion was carried out for 20-25 min at 36 °C in the low-Ca^2+ solution containing LiberaseTH Research Grade (0.15 mg/mL; Roche, Mannheim, Germany) and elastase (0.5 mg/mL; Worthington, Lakewood, NJ, USA). Digestion was stopped by washing the SAN in a “Kraftbrühe” (KB) medium containing (mM) 100 K-glutamate, 10 K-aspartate, 25 KCl, 10 KH2PO4, 2 MgSO4, 20 taurine, 5 creatine, 0.5 EGTA, 20 D-glucose, 5 Hepes, and 1 mg/mL BSA (adjusted to pH 7.2 with KOH). Single SAN cells were then dissociated from the SAN tissue by manual agitation using a flame-forged Pasteur’s pipette. To recover the automaticity of the SAN cells, Ca^2+ was gradually reintroduced in the cell’s storage solution to a final concentration of 1.8 mM. SAN cells were then left to rest for 1 h before recordings.\nFor patch-clamp recordings of SAN myocytes, cells were harvested in custom-made chambers with glass bottoms for cell attachment. Cells were then super-fused with Tyrode’s solution warmed at 36 °C before recording. Action potentials and ionic currents were recorded using an Axon multi-clamp patch-clamp 700B amplifier. Voltage-gated L-type Ca^2+ currents (ICaL) were recorded using standard whole cell patch-clamp configuration. For recording ICaL, we used an extracellular recording solution contained (mM): 135 tetraethylammonium chloride (TEA-Cl), 10 4-aminopyridine (4-AP), 1 MgCl2, 0.03 tetrodotoxin (TTX), 1 g/L Glucose, 2 CaCl2, 10 Hepes, (adjusted to pH = 7.2 with TEAOH). […] Pacemaker activity was recorded by the perforated patch-clamp technique using escin (40 µg/ml). For recording cell automaticity glass pipettes were filled with the intracellular solution contained (mM): 80 K-Aspartate, 50 KCl, 1 MgCl2, 5 HEPES, 2 CaCl2, 5 EGTA, 3 ATP-Na+ salt; pH was adjusted to 7.2 with KOH. Escin was dissolved in sterile H2O and added to the intracellular solution right before each experiment.\nIn all experiments of cellular electrophysiology, we employed synthetized analog of Cas, commercially available at Latoxan (ID: L8109). The native peptide was purified from the venom of Dendroaspis polylepis purchased from Latoxan, as previoulsly described. The pure peptide was obtained after gel filtration, cation exchange and C18 reversed phase chromatography. Its measured molecular mass (7036.26 Da average) was in accordance with the mass calculated from sequence data (7036.22 Da)."}, "[2]": {"test_system": "Cav3.1 T-type", "assay": "Ca2+ current in HEK-293T cells expressing Cav3.1", "format": "cell-based", "settings": "Cas 300 nM (n=13/N=3) and 1 µM (n=10/N=3); holding -80 mV, step -30 mV", "experimental": "HEK-293T (RRID:CVCL_2737) were obtained from the European Collection of Authenticated Cell Cultures (ECACC 96121229). The identity of HEK-293T has been confirmed by STR profiling and the cells have been eradicated from mycoplasma at ECACC. We routinely tested the cells for the absence of the mycoplasma contamination. Cells were cultivated at 37 °C in DMEM supplemented with GlutaMax, 10% fetal bovine serum and 1% penicillin/streptomycin (Invitrogen, Fisher Scientific, France). […]\nMacroscopic currents in HEK-293T cells were recorded at room temperature using an Axopatch 200B or Multiclamp 700B patchclamp amplifier (Molecular Devices, Sunnyvale CA). […]\nIn all experiments of cellular electrophysiology, we employed synthetized analog of Cas, commercially available at Latoxan (ID: L8109). […] Its measured molecular mass (7036.26 Da average) was in accordance with the mass calculated from sequence data (7036.22 Da). […]\nn=10/N=3) channels. Peak current density wa s recorded starting f rom a holding potential of -80mV using an activating voltage step at -30mV for Cav3.1, f ro m a holding potential of -90mV using an activating voltage step at +20mV for Cav2.2 and f rom a holding potential of -80mV using an activating voltage step at 0mV for Cav2.1. Exam ples of recorded traces are reported. […]"}},
  "note": "Entries after “also recorded” stand apart in the source; their conditions may differ. Positions of bridges follow the written chain, without caps; N, C: chain ends. No end group written: not given here.",
  "data": [
    {"sequence": "RICYIHKASLPRATKTCVENTCYKMFIRTQREYISERGCGCPTAMWPYQTECCKGDRCNK (disulfide 3-22, 17-39, 41-52, 53-58 (inferred)) [Cas, calciseptine]", "values": [
      {"measurement": "degree of inhibition of ICav1.2", "setting": "[1]; Cas 300 nM, 0.2 Hz, holding −60 mV", "value": "62 ± 6", "unit": "%"},
      {"measurement": "degree of inhibition of ICav1.2", "setting": "[1]; Cas 300 nM, 1 Hz, holding −60 mV", "value": "63 ± 6", "unit": "%"},
      {"measurement": "degree of inhibition of ICav1.2", "setting": "[1]; Cas 300 nM, 5 Hz, holding −60 mV", "value": "58 ± 8", "unit": "%"},
      {"measurement": "voltage- or use-dependence of ICav1.2 inhibition", "setting": "[1]; Cas 300 nM, holding −40 / −60 mV, 0.2, 1, 5 Hz", "value": "not voltage- or use-dependent"},
      {"measurement": "percentage of ICaL block", "setting": "[1]; Cas 300 nM, holding −40 mV", "value": "68 ± 3", "unit": "%"},
      {"measurement": "percentage of ICaL block", "setting": "[1]; Cas 300 nM, holding −60 mV", "value": "67 ± 4", "unit": "%"},
      {"measurement": "L-type Ca2+ current density", "setting": "[1]; 0 mV, Ctrl -4.14± 0.56", "value": "-0.45± 0.14", "unit": "pA/pF"},
      {"measurement": "L-type Ca2+ current density", "setting": "[1]; +10 mV, Ctrl -4.69± 0.57", "value": "-0.17± 0.14", "unit": "pA/pF"},
      {"measurement": "L-type Ca2+ current density", "setting": "[1]; +20 mV, Ctrl -3.93± 0.56", "value": "-0.13± 0.21", "unit": "pA/pF"},
      {"measurement": "L-type Ca2+ current density", "setting": "[1]; +40 mV, Ctrl -1.15± 0.37", "value": "0.37± 0.29", "unit": "pA/pF"},
      {"measurement": "L-type Ca2+ current density", "setting": "[1]; -10 mV, Ctrl -2.49± 0.39", "value": "-0.17± 0.07", "unit": "pA/pF"},
      {"measurement": "L-type Ca2+ current density", "setting": "[1]; -20 mV, Ctrl -1.16± 0.20", "value": "-0.08± 0.03", "unit": "pA/pF"},
      {"measurement": "L-type Ca2+ current density", "setting": "[1]; -25 mV, Ctrl -0.97± 0.21", "value": "-0.25± 0.13", "unit": "pA/pF"},
      {"measurement": "block of ICaL", "setting": "[1]; Cas 1 µM, holding −55 mV, n=8/N=2", "value": "totally blocked ICaL"},
      {"measurement": "residual ICaL after Cas", "setting": "[1]; Cav1.3^−/− SAN myocytes after Cas perfusion", "value": "No residual ICaL was recorded"},
      {"measurement": "effect on Cav3.1 current", "setting": "[2]", "value": "failed to detect inhibitory effect; also recorded: had no effect"}
    ]}
  ]
}
